Tests used:
[1] = tested on: brain, spinal cord, and DRG of the NHPs; test: NGS fold enrichment of synthetic library (passage 3) in NHPs, first cross-species screen; assay type: in vivo, cynomolgus macaques (Macaca fascicularis); conditions: synthetic library passage 3, intravenous, relative to wild-type AAV9
Protocol: (§1) After creation of the synthetic library with the sub-selected variants, the synthetic library was screened (passage 3) in two NHPs (2-4 years of age) and two strains of mice, BALB/c (n=3, 6-8 weeks of age) and C57Bl/6 mice (n=3, 6-8 weeks of age), in a first cross-species evolution screen. The animals were injected intravenously with the synthetic library. After a period in vivo, (e.g., 28-days) RNA was extracted from nervous tissue, e.g., brain, spinal cord, and DRG of the NHPs and the brains of mice. Following RNA recovery and RT-PCR amplification, a systematic NGS enrichment analysis was performed, and the peptides comprised within the variants were identified and the capsid enrichment ratio for each variant compared to the wild-type AAV9 control was calculated (fold enrichment relative to wild-type AAV9) (Table 9). […] All animals were dosed intravenously at […] across the screen.

[2] = tested on: brain; test: NGS fold enrichment of synthetic library (passage 3) in BALB/c mice, first cross-species screen; assay type: in vivo; conditions: synthetic library passage 3, intravenous, relative to wild-type AAV9
Protocol: as §1

[3] = tested on: brain; test: NGS fold enrichment of synthetic library (passage 3) in C57Bl/6 mice, first cross-species screen; assay type: in vivo; conditions: synthetic library passage 3, intravenous, relative to wild-type AAV9
Protocol: as §1

[4] = tested on: brains, heart, liver, muscle, and DRG of the NHPs; test: Maturation of TTM-001 and TTM-002 capsids, NGS enrichment in NHP tissues; assay type: in vivo; conditions: NGS, relative to AAV9 control
Method in brief: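 Variants carry mutations within and flanking the loop IV peptide insert: positions 450–466 were triplet-randomized, while positions 449–466 received low-frequency point mutations. The combined pool went into two NHPs, and each peptide was scored by NGS enrichment ratio against AAV9.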

[5] = tested on: brain; test: Maturation of TTM-001 capsid, NGS enrichment in brain of CD-1 Outbred mice; assay type: in vivo; conditions: NGS fold-enrichment of TTM-001 matured AAV capsid variants in the brain of CD-1 Outbred mice; intravenous 1.0×10^12 VG/dose; 14 days in life; RNA; relative to non-matured TTM-001 control
Method in brief: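 Pooled matured TTM-001 or TTM-002 capsid libraries (loop IV region randomized by triple-codon or low-frequency point mutagenesis) dosed IV via tail vein at 1.0×10^12 VG/dose to three female CD-1 mice. Brain RNA taken after 14 days; RT-PCR and NGS gave fold enrichment versus parent TTM-001 or TTM-002 control.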

[6] = RNA from spinal cord of NHPs, NGS
[7] = RNA from brain of BALB/c mice, NGS
[8] = RNA from brain of C57Bl/6 mice, NGS

Sequence | Fold enrichment over AAV9 in the brain of NHPs ([1]; RNA NGS, brain of NHPs) | Fold enrichment over AAV9 in the spinal cord of NHPs ([1]; RNA NGS, spinal cord of NHPs) | Fold enrichment over AAV9 in the brain of Mice (BALB/c) ([2]; RNA NGS, brain of BALB/c mice) | Fold enrichment over AAV9 in the brain of Mice (C57Bl/6) ([3]; RNA NGS, brain of C57Bl/6 mice) | Fold enrichment over TTM-001 [5] | other results
GTHPYTSSGQNQQT | 2.775 fold | 1.684 fold | 0.471 fold | 0.758 fold | – | –
GSGIVTKLGQNQQT | – | – | – | – | – | Fold enrichment over AAV9 in the brain of NHPs ([1]; RNA from brain of NHPs, NGS): 1.174 fold; Fold enrichment over AAV9 in the spinal cord of NHPs [1, 6]: 10.571 fold; Fold enrichment over AAV9 in the brain of Mice (BALB/c) [2, 7]: 0.242 fold; Fold enrichment over AAV9 in the brain of Mice (C57Bl/6) [3, 8]: 0.599 fold
GSGSDMSSWQNQQT | 1.651 fold | 0.175 fold | 0.303 fold | 0.281 fold | – | –
GSLFLATGGQNQQT | – | – | – | – | – | Fold enrichment over AAV9 in the brain of NHPs ([1]; RNA from brain of NHPs, NGS): 1.220 fold; Fold enrichment over AAV9 in the spinal cord of NHPs [1, 6]: 0.000 fold; Fold enrichment over AAV9 in the brain of Mice (BALB/c) [2, 7]: 0.485 fold; Fold enrichment over AAV9 in the brain of Mice (C57Bl/6) [3, 8]: 0.775 fold
GSGQNQHYSLHKQT | 1.563 fold | 3.399 fold | 1.273 fold | 1.485 fold | – | –
GSGQNQQINHRSPT | – | – | – | – | – | Fold enrichment over AAV9 in the brain of NHPs ([1]; RNA from brain of NHPs, NGS): 1.173 fold; Fold enrichment over AAV9 in the spinal cord of NHPs [1, 6]: 0.748 fold; Fold enrichment over AAV9 in the brain of Mice (BALB/c) [2, 7]: 0.220 fold; Fold enrichment over AAV9 in the brain of Mice (C57Bl/6) [3, 8]: 0.259 fold
GSGQNVSSVHRQQT | 1.045 fold | 0.712 fold | 0.271 fold | 0.383 fold | – | –
GSGQNLAGRMDQQT | 1.864 fold | 0.085 fold | 0.295 fold | 0.362 fold | – | –
GFIFPKVSGQNQQT | – | – | – | – | – | Fold enrichment over AAV9 in the brain of NHPs ([1]; RNA from brain of NHPs, NGS): 1.237 fold; Fold enrichment over AAV9 in the spinal cord of NHPs [1, 6]: 0.000 fold; Fold enrichment over AAV9 in the brain of Mice (BALB/c) [2, 7]: 0.692 fold; Fold enrichment over AAV9 in the brain of Mice (C57Bl/6) [3, 8]: 1.764 fold
GALTVMQSGQNQQT | 2.381 fold | 0.430 fold | 0.199 fold | 0.246 fold | – | –
GLLAGKSSGQNQQT | 1.491 fold | 2.981 fold | 0.946 fold | 0.999 fold | – | –
GSGQNQSHYPSQQT | – | – | – | – | – | Fold enrichment over AAV9 in the brain of NHPs ([1]; RNA from brain of NHPs, NGS): 1.228 fold; Fold enrichment over AAV9 in the spinal cord of NHPs [1, 6]: 4.315 fold; Fold enrichment over AAV9 in the brain of Mice (BALB/c) [2, 7]: 0.402 fold; Fold enrichment over AAV9 in the brain of Mice (C57Bl/6) [3, 8]: 0.644 fold
GSGFNQRSEQNQQT | 2.121 fold | 4.491 fold | 0.758 fold | 1.770 fold | – | –
GSGQRLSQGVNHQT | 1.108 fold | 3.394 fold | 1.141 fold | 0.931 fold | – | –
GTREMPLSGQNQQT | 2.339 fold | 2.830 fold | 0.538 fold | 1.436 fold | – | –
GSGQNQQTSTTPLP | 1.052 fold | 2.823 fold | 0.741 fold | 0.828 fold | – | –
KTINSPRSPHSKAQNQQT | – | – | – | – | 2.264 fold | Fold Enrichment relative to AAV9, DRG (NHP) ([4]; NHP DRG): 0.000 fold; Fold Enrichment relative to AAV9, Brain (NHP) ([4]; NHP brain): 0.000 fold; Fold Enrichment relative to AAV9, Heart (NHP) ([4]; NHP heart): 0.000 fold; Fold Enrichment relative to AAV9, Liver DNA (NHP) ([4]; NHP liver DNA): 1.554 fold; Fold Enrichment relative to AAV9, Liver RNA (NHP) ([4]; NHP liver RNA, TTM-001 and TTM-002 matured AAV capsid variants): 27.240 fold; Fold Enrichment relative to AAV9, Muscle (NHP) ([4]; NHP muscle): 0.000 fold
KTINGQRSPHVKAQNQQT | – | – | – | – | 2.596 fold | –
KTINGSGSPHSKAVWRQT | – | – | – | – | 2.026 fold | –
KTINGSSSPHWVAQNQQT (peptide inserted in AAV capsid) | – | – | – | – | 3.277 fold | –
KTINGSGSPHSKSNKQQT | – | – | – | – | 2.006 fold | –
KTINGSGSPHSKAQLHRT | – | – | – | – | 2.618 fold | –
KTINGSGSPHSKARYVQT | – | – | – | – | 2.749 fold | –
KTINGSGSPHSKAQTSRT | – | – | – | – | 3.421 fold | –
KTINGSGSPHLTWQNQQT | – | – | – | – | 2.637 fold | –

Reference: patent publication US20260250318A1, “COMPOSITIONS AND METHODS FOR CROSSING THE BLOOD BRAIN BARRIER” (VOYAGER THERAPEUTICS, INC., priority 2022, published 2026)
